Where “and” joins values, the source holds several entries; their conditions need not be identical. Equal values may be shown once. Toxic doses and inconclusive results are not listed. Square brackets hold non-standard residues; d marks the D form. Peptide text beside a SMILES is read from it. * marks the point of attachment. ξ: configuration not given here. Cbz = O=C(OCc1ccccc1)*; ξNle = CCCCC(N)C(=O)O

Experimental findings from PubChem BioAssay AID330 (DTP/NCI, 2004) are described below.

In this test the test system is P388 leukemia ip, CD2F1 mice, survival T/C. The test is described as follows: NCI In Vivo Anticancer Drug Screen. Data for tumor model P388 Leukemia (intraperitoneal) in CD2F1 (CDF1) mice. The following applies: endpoint: median survival time, higher = longer survival. In outline:
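Mice carrying the transplanted tumor received test compound or vehicle. Survival was recorded in each group, and the value is the treated-group measurement divided by that of the vehicle-treated control group.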

Where [1] appears, read: dose: 6.25 mg/kg/injection, schedule: Q01DX009 (ip), vehicle: Klucel (hydroxypropylcellulose) (HPC).
The mark [2] stands for this setting: dose: 12.5 mg/kg/injection, schedule: Q01DX009 (ip), vehicle: Klucel (hydroxypropylcellulose) (HPC).
Where [3] appears, read: dose: 25.0 mg/kg/injection, schedule: Q01DX009 (ip), vehicle: Klucel (hydroxypropylcellulose) (HPC).
The mark [4] stands for this setting: dose: 200.0 mg/kg/injection, schedule: Q04DX003 (ip), vehicle: saline with Tween-80.
The mark [5] stands for this setting: dose: 400.0 mg/kg/injection, schedule: Q04DX003 (ip), vehicle: saline with Tween-80.
Where [6] appears, read: dose: 50.0 mg/kg/injection, schedule: Q01DX009 (ip), vehicle: saline.
Setting [7] is: dose: 100.0 mg/kg/injection, schedule: Q01DX009 (ip), vehicle: saline.
Where [8] appears, read: dose: 200.0 mg/kg/injection, schedule: Q01DX009 (ip), vehicle: saline.
[9] abbreviates: dose: 50.0 mg/kg/injection, schedule: Q01DX009 (ip), vehicle: saline with Tween-80.
The mark [10] stands for this setting: dose: 100.0 mg/kg/injection, schedule: Q01DX009 (ip), vehicle: saline with Tween-80.
Setting [11] is: dose: 50.0 mg/kg/injection, schedule: Q01DX005 (ip), vehicle: saline with Tween-80.
[12] abbreviates: dose: 100.0 mg/kg/injection, schedule: Q01DX005 (ip), vehicle: saline with Tween-80.
[13] abbreviates: dose: 200.0 mg/kg/injection, schedule: Q01DX005 (ip), vehicle: saline with Tween-80.

`O=S(=O)(c1ccc(Cl)cc1)N(Cl)Cl`: the T/C by setting is: under setting [1], 107 % of control; under setting [2], 100 % of control; under setting [3], 101 % of control and 116 % of control; (dose: 50.0 mg/kg/injection, schedule: Q01DX009 (ip), vehicle: Klucel (hydroxypropylcellulose) (HPC)) 105 % of control.

Take `CC(C)(O)c1cccs1`: the T/C is, setting by setting: (dose: 60.0 mg/kg/injection, schedule: Q01DX005 (ip), vehicle: saline) 100 % of control; (dose: 120.0 mg/kg/injection, schedule: Q01DX005 (ip), vehicle: saline) 100 % of control; (dose: 240.0 mg/kg/injection, schedule: Q01DX005 (ip), vehicle: saline) 99 % of control.

Regarding `CCOc1nc(N)nc(C)c1N=Nc1ccc(Cl)cc1Cl`, the T/C by setting is: (dose: 60.0 mg/kg/injection, schedule: Q01DX005 (ip), vehicle: Klucel + Tween-80) 100 % of control; (dose: 120.0 mg/kg/injection, schedule: Q01DX005 (ip), vehicle: Klucel + Tween-80) 110 % of control.

Take `O=C1N(CCN2CCC3(CC2)OCCO3)CCN1c1cc(Cl)cc(Cl)c1`: the T/C by setting is: (dose: 12.5 mg/kg/injection, schedule: Q01DX009 (ip), vehicle: water) 104 % of control and 105 % of control and 113 % of control; (dose: 25.0 mg/kg/injection, schedule: Q01DX009 (ip), vehicle: water) 105 % of control and 112 % of control and 123 % of control; (dose: 100.0 mg/kg/injection, schedule: Q01DX009 (ip), vehicle: water) 105 % of control and 110 % of control; (dose: 200.0 mg/kg/injection, schedule: Q01DX009 (ip), vehicle: water) 108 % of control.

Regarding `COc1cc(C(=O)NC2CCc3cc(OC)c(OC)c(OC)c3-c3ccc(OC)c(=O)cc32)cc(OC)c1OC` (configuration not stated), the T/C is 119 % of control (dose: 1.25 mg/kg/injection, schedule: Q01DX009 (ip), vehicle: Klucel (hydroxypropylcellulose) (HPC)); 124 % of control (dose: 2.5 mg/kg/injection, schedule: Q01DX009 (ip), vehicle: Klucel (hydroxypropylcellulose) (HPC)); 152 % of control and 154 % of control (dose: 10.0 mg/kg/injection, schedule: Q01DX009 (ip), vehicle: Klucel (hydroxypropylcellulose) (HPC)); 155 % of control and 163 % of control (dose: 20.0 mg/kg/injection, schedule: Q01DX009 (ip), vehicle: Klucel (hydroxypropylcellulose) (HPC)).

In the case of `COc1cc2c(cc1OC)-c1c3c(cc4c1[C@H](C2)N(C)CC4)OCO3`, the T/C runs as follows: under setting [4], 110 % of control; under setting [5], 110 % of control.

Consider `CC(C)(C)C(=O)CC(=O)C(F)(F)C(F)(F)C(F)(F)F.CC(C)(C)C(=O)CC(=O)C(F)(F)C(F)(F)C(F)(F)F.CC(C)(C)C(=O)CC(=O)C(F)(F)C(F)(F)C(F)(F)F.[Ho]`, for which the T/C (dose: 120.0 mg/kg/injection, schedule: Q01DX005 (ip), vehicle: saline with Tween-80) was 111 % of control and the T/C (dose: 240.0 mg/kg/injection, schedule: Q01DX005 (ip), vehicle: saline with Tween-80) is 110 % of control.

In the case of `Cc1cc(S(=O)(=O)[O-])ccc1-n1nc(C)[c-](N=Nc2cc(S(=O)(=O)[O-])ccc2C(=O)[O-])c1=O.[Cr+3].[Na+].[OH-]` (configuration not stated), the T/C was 104 % of control under setting [6], 104 % of control under setting [7] and 108 % of control under setting [8].

Turning to `CC12CCC(O)CC1CCC1C2C(O)CC2(C)C1CCC2(C)O` (configuration not stated), the T/C (dose: 100.0 mg/kg/injection, schedule: Q04DX003 (ip), vehicle: alcohol) was 105 % of control; the T/C (dose: 200.0 mg/kg/injection, schedule: Q04DX003 (ip), vehicle: alcohol) was 90 % of control; the T/C (dose: 400.0 mg/kg/injection, schedule: Q04DX003 (ip), vehicle: alcohol) was 115 % of control.

Regarding `COC1=CC2C3Cc4c(-c5cc(OC)c(O)c6c5CC5C7C=C(OC)C(=O)CC67CCN5C)cc(OC)c(O)c4C2(CCN3C)CC1=O` (configuration not stated), the T/C runs as follows: under setting [9], 97 % of control; under setting [6], 105 % of control; under setting [10], 102 % of control; under setting [7], 94 % of control; (dose: 100.0 mg/kg/injection, schedule: Q04DX003 (ip), vehicle: saline with Tween-80) 104 % of control; (dose: 100.0 mg/kg/injection, schedule: Q04DX003 (ip), vehicle: saline) 95 % of control. Further, the T/C is, setting by setting: under setting [8], 105 % of control; under setting [4], 106 % of control; (dose: 200.0 mg/kg/injection, schedule: Q04DX003 (ip), vehicle: saline) 93 % of control; under setting [5], 95 % of control; (dose: 400.0 mg/kg/injection, schedule: Q04DX003 (ip), vehicle: saline) 96 % of control.

Regarding `CSc1nc(SC)c2c(C)c(Br)[nH]c2n1`, the T/C reads like this: (dose: 100.0 mg/kg/injection, schedule: Q01DX001 (ip), vehicle: saline with Tween-80) 94 % of control; (dose: 200.0 mg/kg/injection, schedule: Q01DX001 (ip), vehicle: saline with Tween-80) 94 % of control; (dose: 400.0 mg/kg/injection, schedule: Q01DX001 (ip), vehicle: saline with Tween-80) 89 % of control.

As to `C=C1CCN(c2ccc([N+](=O)[O-])cc2)C1=O`, the T/C was 94 % of control (dose: 4.0 mg/kg/injection, schedule: Q01DX009 (ip), vehicle: saline + alcohol); 101 % of control (dose: 8.0 mg/kg/injection, schedule: Q01DX009 (ip), vehicle: saline + alcohol); 102 % of control (dose: 16.0 mg/kg/injection, schedule: Q01DX009 (ip), vehicle: saline + alcohol); 96 % of control (dose: 32.0 mg/kg/injection, schedule: Q01DX009 (ip), vehicle: saline + alcohol); 88 % of control (dose: 64.0 mg/kg/injection, schedule: Q01DX009 (ip), vehicle: saline + alcohol).

Consider `CCOC(=O)Nc1ccc2nc(N3CCCCC3)sc2c1`, for which the T/C runs as follows: under setting [9], 96 % of control; under setting [10], 90 % of control.

`N#CC(C(=O)C(=O)Nc1cccc(C(F)(F)F)c1)c1c(Cl)cccc1Cl` (configuration not stated): the T/C was 98 % of control under setting [11], 100 % of control under setting [12] and 100 % of control under setting [13].

In the case of `CCCCCCCCCCCCCCCC[n+]1ccc(C(N)=O)cc1`, the T/C is, setting by setting: (dose: 3.0 mg/kg/injection, schedule: Q01DX009 (ip), vehicle: saline with Tween-80) 109 % of control; (dose: 6.0 mg/kg/injection, schedule: Q01DX009 (ip), vehicle: saline with Tween-80) 118 % of control; (dose: 12.0 mg/kg/injection, schedule: Q01DX009 (ip), vehicle: saline with Tween-80) 109 % of control.

Consider `N=C1C=C(N)CS1`, for which the T/C runs as follows: under setting [6], 87 % of control; under setting [7], 86 % of control; under setting [8], 88 % of control.

Turning to `CCCCC(NC(=O)OCc1ccccc1)C(=O)NCC(=O)OC` (configuration not stated) (Cbz-[ξNle]-Gly-OMe), the T/C is 99 % of control under setting [11], 100 % of control under setting [12] and 99 % of control under setting [13].

Take `COc1ccccc1NC(=S)N/N=C\c1nc2ccccc2c2ccccc12`: the T/C (dose: 75.0 mg/kg/injection, schedule: Q04DX002 (ip), vehicle: Klucel (hydroxypropylcellulose) (HPC)) is 99 % of control; the T/C (dose: 150.0 mg/kg/injection, schedule: Q04DX002 (ip), vehicle: Klucel (hydroxypropylcellulose) (HPC)) is 96 % of control; the T/C (dose: 300.0 mg/kg/injection, schedule: Q04DX002 (ip), vehicle: Klucel (hydroxypropylcellulose) (HPC)) was 96 % of control.

As for `CCCCC[P+](c1ccccc1)(c1ccccc1)c1ccccc1`, the T/C was 105 % of control (dose: 1.56 mg/kg/injection, schedule: Q01DX009 (ip), vehicle: Klucel (hydroxypropylcellulose) (HPC)); 111 % of control (dose: 3.12 mg/kg/injection, schedule: Q01DX009 (ip), vehicle: Klucel (hydroxypropylcellulose) (HPC)); 121 % of control (dose: 3.13 mg/kg/injection, schedule: Q01DX009 (ip), vehicle: Klucel (hydroxypropylcellulose) (HPC)); 121 % of control under setting [1]; 93 % of control under setting [2]; 100 % of control under setting [3].

`CC(=O)[O][Sn]([CH3])([CH3])[CH3]`: the T/C (dose: 0.37 mg/kg/injection, schedule: Q01DX009 (ip), vehicle: saline) was 112 % of control and the T/C (dose: 0.75 mg/kg/injection, schedule: Q01DX009 (ip), vehicle: saline) was 112 % of control.

Take `CC(=O)OCc1c(COC(C)=O)c(-c2ccc(Cl)c(Cl)c2)n2c1CCC2`: the T/C (dose: 100.0 mg/kg/injection, schedule: Q01DX009 (ip), vehicle: Klucel (hydroxypropylcellulose) (HPC)) is 122 % of control.
